Experimental findings from patent publication US6495604B1, “Cycloalkene derivatives, process for producing the same, and use” (Takeda Chemical Industries, Ltd., priority 1998, dated 2002) are described below.

The IC50 is the concentration at which inhibition is half-maximal.

The test system of one assay is NO production by RAW264.7 cell. Kind of assay: NO production-inhibiting effect in RAW264.7 cells (nitrite ion by DAN fluorescence). Type of assay: cell-based, mouse. The settings on record: Mus musculus, RAW264.7, RAW264.7; LPS 5 ng/ml + interferon gamma 1 U/ml; nitrite ion in culture supernatant after overnight incubation. How it is done:
Mouse macrophage cell line RAW264.7 was used as an iNOS-inducible cell and a test compound was examined for its % inhibition of NO production. The test compound was dissolved at 10 mM in N,N-dimethylformamide and diluted with an RPMI-1640 medium at the concentration of 0.1 mM. The concentration was further adjusted using the medium so that a final concentration ranging from 10 μM to 10 nM could be obtained by a 10-fold serial dilution and the test compound was added to a culture medium. On the day before the experiment, the cell was adjusted at 5×10^5/ml in an RPMI-1640 medium supplemented with 10% inactivated fetal calf serum and inoculated to a 96-well microplate at 1×10^5 cells/0.2 ml per well. After incubating at 37° C. under an atmosphere of 5% CO2/95% air overnight, the test compound adjusted as described above was added and then LPS and interferon gamma were added at the final concentrations of 5 ng/ml and 1 U/ml, respectively. After further incubating overnight, culture supernatants were examined for the concentration of nitrite ion (stable metabolite of NO) which was used as an index for the NO production. The nitrite ion concentration was determined by adding 25 μl of 20 μg/ml of 2,3-diaminonaphthalene (DAN) to 50 μl of the culture supernatant, followed by incubating at room temperature for 10 minutes, followed by adding 25 μl of 0.5 N NaOH, followed by determining a fluorescence at 450 nm (excitation wavelength: 365 nm). An IC50 represents the concentration of the test compound which inhibits 50% of the NO production.
Take `CCOC(=O)C1=CCCCC1S(=O)(=O)N(C)c1ccc(Cl)cc1F` (centres unmarked) [Compound 2, ethyl 6-[N-(4-chloro-2-fluorophenyl)-N-methylsulfamoyl]-1-cyclohexene-1-carboxylate]: the concentration for half-maximal inhibition (IC50) turned out to be 1.1 µM.

Take `CCOC(=O)C1=CCCCC1S(=O)(=O)Nc1c(C(C)C)cccc1C(C)C` (centres unmarked) [Compound 4, ethyl 6-[N-(2,6-diisopropylphenyl)sulfamoyl]-1-cyclohexene-1-carboxylate]: the IC50 was found to be 2.6 µM.

For `CCOC(=O)C1=CCCCC1S(=O)(=O)Nc1ccccc1` (centres unmarked) [Compound 6, ethyl 6-(N-phenylsulfamoyl)-1-cyclohexene-1-carboxylate], the IC50 worked out at 0.59 µM.

In the case of `CCOC(=O)C1=C(S(=O)(=O)Nc2ccccc2)CCCC1` [Compound 7, ethyl 2-(N-phenylsulfamoyl)-1-cyclohexene-1-carboxylate], the IC50 was determined as 4 µM.

`CCOC(=O)C1=C(S(=O)(=O)Nc2ccc(OC)cc2)CCCC1` [Compound 8, ethyl 2-[N-(4-methoxyphenyl)sulfamoyl]-1-cyclohexene-1-carboxylate]: the IC50 came to 4.8 µM.

On to `CCOC(=O)C1=C(S(=O)(=O)Nc2ccc(Cl)cc2F)CCCC1` [Compound 9, ethyl 2-[N-(4-chloro-2-fluorophenyl)sulfamoyl]-1-cyclohexene-1-carboxylate], for which the IC50 was 4.1 µM.

Regarding `CCOC(=O)C1=CCCCC1S(=O)(=O)Nc1ccccc1F` (centres unmarked) [Compound 10, ethyl 6-[N-(2-fluorophenyl)sulfamoyl]-1-cyclohexene-1-carboxylate], the IC50 worked out at 0.058 µM.

`CCOC(=O)C1=CCCCC1S(=O)(=O)Nc1ccc(F)cc1` (centres unmarked) [Compound 12, ethyl 6-[N-(4-fluorophenyl)sulfamoyl)-1-cyclohexene-1-carboxylate]: the IC50 came out at 0.18 µM.

Regarding `CCOC(=O)C1=CCCCC1S(=O)(=O)Nc1c(F)cccc1F` (centres unmarked) [Compound 13, ethyl 6-[N-(2,6-difluorophenyl)sulfamoyl]-1-cyclohexene-1-carboxylate], the IC50 was found to be 0.46 µM.

Take `CCOC(=O)C1=CCCCC1S(=O)(=O)Nc1cccc(F)c1F` (centres unmarked) [Compound 14, ethyl 6-[N-(2,3-difluorophenyl)sulfamoyl]-1-cyclohexene-1-carboxylate]: the IC50 came to 0.59 µM.

For the compound `CCOC(=O)C1=CCCCC1S(=O)(=O)Nc1cc(F)ccc1F` (centres unmarked) [Compound 15, ethyl 6-[N-(2,5-difluorophenyl)sulfamoyl]-1-cyclohexene-1-carboxylate], the IC50 came to 0.28 µM.

Consider `CCOC(=O)C1=CCCCC1S(=O)(=O)Nc1ccc(F)c(F)c1` (centres unmarked) [Compound 16, ethyl 6-[N-(3,4-difluorophenyl)sulfamoyl]-1-cyclohexene-1-carboxylate], for which the IC50 came out at 0.18 µM.

For the compound `CCOC(=O)C1=CCCCC1S(=O)(=O)Nc1cc(F)cc(F)c1` (centres unmarked) [Compound 17, ethyl 6-[N-(3,5-difluorophenyl)sulfamoyl]-1-cyclohexene-1-carboxylate], the IC50 amounted to 2.6 µM.

Regarding `CCOC(=O)C1=C(S(=O)(=O)Nc2ccc(F)cc2)CCCC1` [Compound 18, ethyl 2-[N-(4-fluorophenyl)sulfamoyl)-1-cyclohexene-1-carboxylate], the IC50 turned out to be 4.4 µM.

Consider `CCOC(=O)C1=CCCCC1S(=O)(=O)Nc1ccccc1C(=O)OCC` (centres unmarked) [Compound 21, ethyl 6-[N-(2-ethoxycarbonylphenyl)sulfamoyl]-1-cyclohexene-1-carboxylate], for which the IC50 was determined as 2.4 µM.

Take `COC(=O)C1=CCCCC1S(=O)(=O)Nc1ccc(F)cc1F` (centres unmarked) [Compound 22, methyl 6-[N-(2,4-difluorophenyl)sulfamoyl]-1-cyclohexene-1-carboxylate]: the IC50 amounted to 0.18 µM.

In the case of `CCCOC(=O)C1=CCCCC1S(=O)(=O)Nc1ccc(F)cc1F` (centres unmarked) [Compound 23, propyl 6-[N-(2,4-difluorophenyl)sulfamoyl]-1-cyclohexene-1-carboxylate], the IC50 was found to be 0.027 µM.

As to `COC(=O)C1=CCCCC1S(=O)(=O)Nc1ccc(Cl)cc1F` (centres unmarked) [Compound 24, methyl 6-[N-(4-chloro-2-fluorophenyl)sulfamoyl]-1-cyclohexene-1-carboxylate], the IC50 was 0.78 µM.

Regarding `CC(C)OC(=O)C1=CCCCC1S(=O)(=O)Nc1ccc(F)cc1F` (centres unmarked) [Compound 25, isopropyl 6-[N-(2,4-difluorophenyl)sulfamoyl]-1-cyclohexene-1-carboxylate], the IC50 came out at 0.32 µM.

As for `CCOC(=O)C1=CCCCC1S(=O)(=O)Nc1ccccc1C(=O)OC` (centres unmarked) [Compound 26, ethyl 6-[N-(2-methoxycarbonylphenyl)sulfamoyl]-1-cyclohexene-1-carboxylate], the IC50 stood at 3.3 µM.

In the case of `CCOC(=O)C1=CCCCC1S(=O)(=O)Nc1ccc(C)cc1F` (centres unmarked) [Compound 27, ethyl 6-[N-(2-fluoro-4-methylphenyl)sulfamoyl]-1-cyclohexene-1-carboxylate], the IC50 was 0.25 µM.

In the case of `CCOC(=O)C1=CCCCC1S(=O)(=O)Nc1ccccc1Cl` (centres unmarked) [Compound 28, ethyl 6-[N-(2-chlorophenyl)sulfamoyl]-1-cyclohexene-1-carboxylate], the IC50 worked out at 0.029 µM.

In the case of `CCOC(=O)C1=CCCCC1S(=O)(=O)Nc1ccc(F)cc1Cl` (centres unmarked) [Compound 29, ethyl 6-[N-(2-chloro-4-fluorophenyl)sulfamoyl]-1-cyclohexene-1-carboxylate], the IC50 amounted to 0.0093 µM.

Regarding `CCOC(=O)C1=CCCCC1S(=O)(=O)Nc1ccc(F)c(F)c1F` (centres unmarked) [Compound 31, ethyl 6-[N-(2,3,4-trifluorophenyl)sulfamoyl]-1-cyclohexene-1-carboxylate], the IC50 amounted to 0.23 µM.

On to `CC(C)COC(=O)C1=CCCCC1S(=O)(=O)Nc1ccc(F)cc1F` (centres unmarked) [Compound 32, isobutyl 6-[N-(2,4-difluorophenyl)sulfamoyl]-1-cyclohexene-1-carboxylate], for which the concentration for half-maximal inhibition (IC50) was 0.23 µM.

With `CCCCOC(=O)C1=CCCCC1S(=O)(=O)Nc1ccc(F)cc1F` (centres unmarked) [Compound 33, butyl 6-[N-(2,4-difluorophenyl)sulfamoyl]-1-cyclohexene-1-carboxylate], the IC50 is 0.26 µM.

With `CCOC(=O)C1=CCCCC1S(=O)(=O)Nc1ccc(Br)cc1F` (centres unmarked) [Compound 34, ethyl 6-[N-(4-bromo-2-fluorophenyl)sulfamoyl]-1-cyclohexene-1-carboxylate], the IC50 was 0.35 µM.

As to `CCOC(=O)C1=CCCCC1S(=O)(=O)Nc1ccc(Cl)cc1Cl` (centres unmarked) [Compound 35, ethyl 6-[N-(2,4-dichlorophenyl)sulfamoyl]-1-cyclohexene-1-carboxylate], the IC50 is 0.082 µM.

The assay is the same for the next values; noted with them: Mus musculus; RAW264.7; LPS 5 ng/ml + interferon gamma 1 U/ml; nitrite ion in culture supernatant after overnight incubation.
Consider `CCOC(=O)C1=CCCCC1S(=O)(=O)Nc1ccc([N+](=O)[O-])cc1` (centres unmarked) [Compound 5, ethyl 6-[N-(4-nitrophenyl)sulfamoyl]-1-cyclohexene-1-carboxylate], for which the IC50 is 3.7 µM.

For `CCOC(=O)C1=CCCCC1S(=O)(=O)Nc1ccc(Cl)cc1` (centres unmarked) [Compound 30, ethyl 6-[N-(4-chlorophenyl)sulfamoyl]-1-cyclohexene-1-carboxylate], the IC50 amounted to 0.54 µM.

On to `CCOC(=O)C1=CCCCC1S(=O)(=O)Nc1cccc(Cl)c1` (centres unmarked) [Compound 37, ethyl 6-[N-(3-chlorophenyl)sulfamoyl]-1-cyclohexene-1carboxylate], for which the IC50 was 0.13 µM.

The same assay, now with this note: RAW264.7; LPS 5 ng/ml + interferon gamma 1 U/ml; nitrite ion in culture supernatant after overnight incubation.
As to `CCOC(=O)C1=CCCCC1S(=O)(=O)Nc1ccc(F)cc1F` (centres unmarked) [Compound 19, 1-ethyl 6-[N-(2,4-difluorophenyl)sulfamoyl]-1-cyclohexene-1-carboxylate], the IC50 was 2 µM.
